Legend:
[1] = target: T1, ACSBG2 (Homo sapiens, UniProt Q5FVE4); details: cited from earlier work
T1 sequence (Q5FVE4 1-666): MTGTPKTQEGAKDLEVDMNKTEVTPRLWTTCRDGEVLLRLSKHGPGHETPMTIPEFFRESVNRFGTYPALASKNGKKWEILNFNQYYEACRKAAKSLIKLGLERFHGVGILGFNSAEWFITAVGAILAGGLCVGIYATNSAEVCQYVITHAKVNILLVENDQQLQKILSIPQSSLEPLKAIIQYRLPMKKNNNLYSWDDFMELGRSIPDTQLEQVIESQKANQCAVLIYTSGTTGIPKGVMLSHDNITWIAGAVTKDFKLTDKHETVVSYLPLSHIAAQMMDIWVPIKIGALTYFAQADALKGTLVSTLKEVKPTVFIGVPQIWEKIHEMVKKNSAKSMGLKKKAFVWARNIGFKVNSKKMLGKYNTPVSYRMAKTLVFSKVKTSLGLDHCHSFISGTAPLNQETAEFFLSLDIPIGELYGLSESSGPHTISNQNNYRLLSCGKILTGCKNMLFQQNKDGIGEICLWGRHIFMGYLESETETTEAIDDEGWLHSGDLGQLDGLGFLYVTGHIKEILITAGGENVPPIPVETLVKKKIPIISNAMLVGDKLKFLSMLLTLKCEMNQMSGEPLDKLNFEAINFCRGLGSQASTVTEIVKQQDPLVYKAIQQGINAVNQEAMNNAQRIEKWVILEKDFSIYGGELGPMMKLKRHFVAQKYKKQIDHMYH

[2] = target: T2, ACSL6 (Rattus norvegicus, UniProt P33124); details: cited from earlier work
T2 sequence (P33124 1-697): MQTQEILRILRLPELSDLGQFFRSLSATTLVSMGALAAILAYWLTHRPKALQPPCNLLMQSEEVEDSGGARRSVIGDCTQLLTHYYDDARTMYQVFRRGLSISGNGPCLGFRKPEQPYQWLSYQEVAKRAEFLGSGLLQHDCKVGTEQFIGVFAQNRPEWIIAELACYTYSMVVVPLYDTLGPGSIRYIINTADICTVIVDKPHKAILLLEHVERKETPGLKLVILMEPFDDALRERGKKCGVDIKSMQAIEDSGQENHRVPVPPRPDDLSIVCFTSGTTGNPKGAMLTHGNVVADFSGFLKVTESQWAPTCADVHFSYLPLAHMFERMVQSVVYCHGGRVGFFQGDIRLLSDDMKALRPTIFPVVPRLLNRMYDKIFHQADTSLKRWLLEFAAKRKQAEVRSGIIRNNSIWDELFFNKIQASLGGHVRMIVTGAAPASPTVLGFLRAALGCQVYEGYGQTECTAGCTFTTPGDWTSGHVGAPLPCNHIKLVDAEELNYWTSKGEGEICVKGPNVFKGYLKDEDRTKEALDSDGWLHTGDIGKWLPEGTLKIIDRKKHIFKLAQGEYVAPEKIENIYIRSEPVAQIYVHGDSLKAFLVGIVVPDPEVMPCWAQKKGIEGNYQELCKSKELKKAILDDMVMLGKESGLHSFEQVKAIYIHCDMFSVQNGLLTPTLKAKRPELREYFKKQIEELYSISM

[3] = target: T3, ACSL5 (Rattus norvegicus, UniProt O88813); details: cited from earlier work
T3 sequence (O88813 1-683): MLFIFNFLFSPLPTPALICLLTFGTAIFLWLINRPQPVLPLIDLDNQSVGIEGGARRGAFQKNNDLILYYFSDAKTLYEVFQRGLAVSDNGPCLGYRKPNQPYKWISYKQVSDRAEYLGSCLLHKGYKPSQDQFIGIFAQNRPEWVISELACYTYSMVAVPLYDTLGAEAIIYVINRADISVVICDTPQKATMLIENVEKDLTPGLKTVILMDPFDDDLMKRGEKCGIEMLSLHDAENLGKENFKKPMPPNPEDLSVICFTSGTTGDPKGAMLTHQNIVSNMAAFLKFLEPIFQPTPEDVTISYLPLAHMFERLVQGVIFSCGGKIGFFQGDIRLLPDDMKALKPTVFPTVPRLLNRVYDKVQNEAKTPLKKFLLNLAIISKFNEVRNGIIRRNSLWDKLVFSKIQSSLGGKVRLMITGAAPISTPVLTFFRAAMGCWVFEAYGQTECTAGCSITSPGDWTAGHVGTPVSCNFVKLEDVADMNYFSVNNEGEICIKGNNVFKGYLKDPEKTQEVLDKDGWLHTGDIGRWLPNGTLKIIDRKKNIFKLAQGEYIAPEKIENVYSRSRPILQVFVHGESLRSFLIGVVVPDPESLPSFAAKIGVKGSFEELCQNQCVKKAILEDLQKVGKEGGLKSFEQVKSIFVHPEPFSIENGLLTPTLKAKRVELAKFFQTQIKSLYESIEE

[4] = test system: colon (HCT-15) cancer cell line; details: cited from earlier work
[5] = test system: lung (NCI-H23) cancer cell line; details: cited from earlier work
[6] = test system: brain (SF268) cancer cell line; details: cited from earlier work
[7] = target: ACSVL1 (FATP2) (Homo sapiens, UniProt O14975); details: cited from earlier work
[8] = test system: cardiolipin; details: cited from earlier work
[9] = target: ACSL4 (Rattus norvegicus, UniProt O35547); details: cited from earlier work
[10] = target: ACSVL5 (FATP4) (Mus musculus, UniProt Q91VE0); details: cited from earlier work
[11] = target: ACSL3 (Rattus norvegicus, UniProt Q63151); details: cited from earlier work
[12] = target: T4, ACSL1 (Rattus norvegicus, UniProt P18163); details: cited from earlier work
T4 sequence (P18163 1-699): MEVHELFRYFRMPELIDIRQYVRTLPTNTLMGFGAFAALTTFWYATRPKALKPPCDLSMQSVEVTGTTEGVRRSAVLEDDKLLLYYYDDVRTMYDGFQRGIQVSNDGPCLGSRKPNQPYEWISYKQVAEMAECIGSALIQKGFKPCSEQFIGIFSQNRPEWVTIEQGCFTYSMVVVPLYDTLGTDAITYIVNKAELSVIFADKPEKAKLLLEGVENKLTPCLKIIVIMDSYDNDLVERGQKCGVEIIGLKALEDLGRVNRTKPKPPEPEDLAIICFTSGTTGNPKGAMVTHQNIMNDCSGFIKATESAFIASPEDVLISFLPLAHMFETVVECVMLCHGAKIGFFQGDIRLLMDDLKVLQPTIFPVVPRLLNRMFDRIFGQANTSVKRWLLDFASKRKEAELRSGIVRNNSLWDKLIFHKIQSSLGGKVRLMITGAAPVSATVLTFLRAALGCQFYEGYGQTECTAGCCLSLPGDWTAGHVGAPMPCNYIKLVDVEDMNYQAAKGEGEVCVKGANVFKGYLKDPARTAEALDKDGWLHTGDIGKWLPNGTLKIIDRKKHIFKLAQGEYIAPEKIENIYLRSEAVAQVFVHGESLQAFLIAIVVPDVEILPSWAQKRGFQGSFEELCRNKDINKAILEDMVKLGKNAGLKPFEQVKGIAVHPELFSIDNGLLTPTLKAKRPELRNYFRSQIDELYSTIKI

[13] = test system: ACSVL3 mRNA; assay: Transient ACSVL3 KD in U87 cells, ACSVL3 expression by immunofluorescence and Western blot; type: cell-based, human; details: day 3 post-transfection, indirect immunofluorescence and Western blot
Procedure: Transient ACSVL3 KD. Four different small interfering RNA (siRNA) constructs targeting different regions of ACSVL3 mRNA were produced using the pSilencer™ kit (Applied Biosystems/Ambion; Austin Tex.). U87 cells were transfected with each construct using siPORT™ Lipid reagent (Applied Biosystems/Ambion). ACSVL3 expression was assessed on day 3 post-transfection by indirect immunofluorescence and Western blot and found to be decreased by siRNA ACSVL3-3 and -4, but not -1 or -2 (data not shown). siRNA ACSVL3-3 (5′-CACGGCTCGCGGCGCTTTA-3′ (SEQ ID NO: 1)) targets by 394-412 of ACSVL3 mRNA and ACSVL3-4 (5′-CGTCTATGGAGTCACTGTG-3′ (SEQ ID NO: 2)) targets by 1861-1879. Transient ACSVL3 KD in Mayo-22 cells was achieved by transfection with ACSVL3-3 using siPORT™ Lipid reagent. Control cells received siRNA with a scrambled nucleotide sequence (supplied by Ambion).
Immunohistochemistry, immunofluorescence, and Western blotting. […] ACSVL3 was detected on Western blots with SuperSignal West Pico chemiluminescent substrate (Pierce Biotechnology, Rockford Ill.). Total and phospho-Akt (ser473) were detected with antibodies from BD Biosciences (San Jose Calif.) and Cell Signaling Technology (Danvers Mass.), respectively, and quantitated with the LiCOR Odyssey dual wavelength infrared system. Protein was determined by the method of Lowry et al. (16).

Sequence of ACSL3 (Q63151 whole entry): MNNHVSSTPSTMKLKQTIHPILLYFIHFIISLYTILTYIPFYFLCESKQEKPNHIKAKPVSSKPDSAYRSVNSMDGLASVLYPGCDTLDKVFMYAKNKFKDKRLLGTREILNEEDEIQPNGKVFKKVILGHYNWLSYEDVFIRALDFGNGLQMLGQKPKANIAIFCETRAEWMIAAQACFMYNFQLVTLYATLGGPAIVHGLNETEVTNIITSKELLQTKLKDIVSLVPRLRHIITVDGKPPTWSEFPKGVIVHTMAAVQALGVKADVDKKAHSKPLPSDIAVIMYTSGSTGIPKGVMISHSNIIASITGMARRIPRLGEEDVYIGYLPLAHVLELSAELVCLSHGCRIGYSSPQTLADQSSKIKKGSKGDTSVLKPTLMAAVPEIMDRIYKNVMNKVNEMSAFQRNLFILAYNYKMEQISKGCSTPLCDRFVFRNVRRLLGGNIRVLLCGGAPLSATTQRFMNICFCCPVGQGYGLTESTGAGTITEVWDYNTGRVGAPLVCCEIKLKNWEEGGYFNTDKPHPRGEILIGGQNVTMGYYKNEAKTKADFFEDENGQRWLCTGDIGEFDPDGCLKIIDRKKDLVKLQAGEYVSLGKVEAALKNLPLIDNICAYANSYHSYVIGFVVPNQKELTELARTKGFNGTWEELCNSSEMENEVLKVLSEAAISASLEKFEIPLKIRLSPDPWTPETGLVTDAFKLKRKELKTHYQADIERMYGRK
Sequence of ACSL4 (O35547 whole entry): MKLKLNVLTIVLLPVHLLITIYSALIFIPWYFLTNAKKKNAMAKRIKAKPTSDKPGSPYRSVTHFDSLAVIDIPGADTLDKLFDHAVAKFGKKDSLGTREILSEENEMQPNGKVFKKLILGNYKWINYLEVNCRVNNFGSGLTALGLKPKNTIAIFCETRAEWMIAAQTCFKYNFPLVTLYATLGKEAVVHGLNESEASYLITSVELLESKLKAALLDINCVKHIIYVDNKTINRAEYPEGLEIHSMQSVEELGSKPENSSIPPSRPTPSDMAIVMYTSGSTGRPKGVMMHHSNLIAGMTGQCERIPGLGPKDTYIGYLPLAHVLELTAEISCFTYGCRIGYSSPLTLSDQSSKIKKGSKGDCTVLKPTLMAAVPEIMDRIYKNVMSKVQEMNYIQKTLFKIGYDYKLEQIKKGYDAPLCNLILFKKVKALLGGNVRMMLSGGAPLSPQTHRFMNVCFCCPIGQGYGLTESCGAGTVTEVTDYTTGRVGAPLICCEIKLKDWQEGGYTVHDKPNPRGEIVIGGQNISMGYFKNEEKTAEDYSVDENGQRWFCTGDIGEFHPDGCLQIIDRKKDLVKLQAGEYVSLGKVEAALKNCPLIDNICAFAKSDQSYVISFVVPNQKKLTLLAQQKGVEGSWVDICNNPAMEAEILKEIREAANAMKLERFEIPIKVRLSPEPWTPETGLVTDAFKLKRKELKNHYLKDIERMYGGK
Sequence of ACSVL5 (FATP4) (Q91VE0 whole entry): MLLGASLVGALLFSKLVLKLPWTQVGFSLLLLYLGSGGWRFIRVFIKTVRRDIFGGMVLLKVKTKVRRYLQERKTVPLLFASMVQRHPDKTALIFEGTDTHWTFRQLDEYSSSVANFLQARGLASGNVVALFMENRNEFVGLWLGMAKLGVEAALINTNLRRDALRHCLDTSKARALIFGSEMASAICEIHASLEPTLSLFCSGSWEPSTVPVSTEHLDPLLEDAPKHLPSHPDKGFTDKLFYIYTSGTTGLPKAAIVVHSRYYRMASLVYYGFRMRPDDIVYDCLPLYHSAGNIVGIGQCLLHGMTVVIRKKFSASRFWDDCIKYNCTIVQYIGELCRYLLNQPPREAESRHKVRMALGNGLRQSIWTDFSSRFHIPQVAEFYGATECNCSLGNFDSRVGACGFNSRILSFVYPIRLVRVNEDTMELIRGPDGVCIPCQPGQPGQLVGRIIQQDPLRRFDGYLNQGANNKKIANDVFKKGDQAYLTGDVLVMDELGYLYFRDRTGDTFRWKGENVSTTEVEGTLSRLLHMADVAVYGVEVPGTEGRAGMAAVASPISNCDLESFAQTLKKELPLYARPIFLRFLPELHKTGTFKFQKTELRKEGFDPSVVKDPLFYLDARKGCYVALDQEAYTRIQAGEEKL
Sequence of ACSVL1 (FATP2) (O14975 whole entry): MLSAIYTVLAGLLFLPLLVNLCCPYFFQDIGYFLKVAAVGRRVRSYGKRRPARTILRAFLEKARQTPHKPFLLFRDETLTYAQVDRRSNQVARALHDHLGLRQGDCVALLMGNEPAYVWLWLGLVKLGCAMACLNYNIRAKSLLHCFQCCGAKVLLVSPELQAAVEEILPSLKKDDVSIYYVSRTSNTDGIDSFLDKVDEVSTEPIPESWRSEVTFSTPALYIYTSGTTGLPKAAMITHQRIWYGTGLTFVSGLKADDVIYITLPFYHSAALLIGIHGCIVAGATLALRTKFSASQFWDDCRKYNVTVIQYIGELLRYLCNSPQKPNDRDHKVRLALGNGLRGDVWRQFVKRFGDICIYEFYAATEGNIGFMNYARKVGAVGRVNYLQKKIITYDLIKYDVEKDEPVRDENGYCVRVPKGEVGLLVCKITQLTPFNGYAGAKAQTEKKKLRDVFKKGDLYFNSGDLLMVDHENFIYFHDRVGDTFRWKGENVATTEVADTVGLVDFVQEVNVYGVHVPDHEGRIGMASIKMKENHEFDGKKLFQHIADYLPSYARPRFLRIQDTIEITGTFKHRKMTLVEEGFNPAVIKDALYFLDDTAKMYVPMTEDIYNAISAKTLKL

CCC/C=C/C/C=C/C=C/C=N/NN=O [triacsin c]
inhibition of ACSBG2 [1]: does not inhibit
inhibition of ACSL6 [2]: does not inhibit
inhibition of ACSL5 [3]: does not inhibit
caspase activity [4]: induced caspase activity
caspase activity [5]: induced caspase activity
caspase activity [6]: induced caspase activity
inhibition of ACSVL1 (FATP2) [7]: inhibits
mitochondrial level of cardiolipin [8]: decreased
inhibition of ACSL4 [9]: inhibits
inhibition of ACSVL5 (FATP4) [10]: does not inhibit
inhibition of ACSL3 [11]: inhibits
inhibition of ACSL1 [12]: inhibits

siRNA ACSVL3-4: siRNA 5′-CGTCTATGGAGTCACTGTG-3′ (SEQ ID NO: 2), targets 1861-1879 of ACSVL3 mRNA (listed as DNA, chemistry not given here)
ACSVL3 expression [13]: decreased

— patent US20110269815A1, “METHODS OF REDUCING CELLULAR PROLIFERATION BY INHIBITING ACSVL3” (THE JOHNS HOPKINS UNIVERSITY, priority 2008, published 2011)
